# Where two headings read alike, the source gives them in different places. Marks after values point to notes of the source that are not given here.
# How the values were obtained:
# [1] = in vivo accumulation in proliferating tissues of normal mice; conditions: 185 MBq through tail vein, normal mice (C57BL/6), FIG. 10
# Method: To evaluate the accumulation of each radioactive iodine-labeled nucleic acid derivative in proliferating tissues, tests were conducted to study in vivo distribution in normal mice. A 185 MBq of each labeled compound was injected in each of 10 week old normal mice (C57BL/6) through its tail vein, and three animals were sacrificed and anatomized at appropriate intervals. Incorporation of radioactivity in each tissue sample was measured with an automatic well-type gamma counter (ARC-300, Aloka Co., Ltd.). Incorporated radioactivity in tissue was calculated as the administrated dose per unit weight of the tissue, and represented in percentage (% ID/g).
# [2] = system: thymidine kinase; experiment: in vitro phosphorylation activity by thymidine kinase (crude enzyme from LL/2 cells); format: biochemical, mouse; conditions: for phosphorylation activity attributed to thymidine kinase: crude enzyme from LL/2 cells; for Phosphorylated material production rate: crude enzyme from LL/2 mouse lung cancer cells, 2 nmole labeled compound, ATP, 37° C., n = 3
# Method: Liquid enzyme was extracted from a LL/2 mouse's lung cancer cell strain in the logarithmic growth phase according to the method of Wolcott R M and Colacino J M (Anal. Biochem 178, p.38–40 (1989)). To a reaction liquid containing ATP, which is a phosphate donor, 2 nmole of the label compound and the liquid enzyme were added and reacted at 37° C. for a fixed period of time. The reaction was stopped by adding 1 mL of a 100 mM lanthanum chloride/5 mM triethanolamine solution. Phosphorylated material was prepared by centrifugal separation to form a phosphate-metal complex, followed by measuring a radioactivity of the resulting precipitate with an automatic well-type gamma counter (ARC-380, Aloka Co., Ltd.). […] ITDU and [I-125] ITAU.
# [3] = biological target: T1, E. coli-originating thymidine phospholylase (Escherichia coli, UniProt P07650); conditions: for 5-IU production rate: 0.5–12.0 nmol labeled compound, 0.0009–9.0 units enzyme, n = 3; for 5-IU production rate / metabolic stability of glycosidic bond compared with [I-125] IUR: 25° C.; for Relative activity (C—N glycosidic linkage cleavage): relative to [I-125]IUR = 1.00; for metabolic stability of glycosidic bond compared with [I-125] IUR: thymidine phospholylase
# Method: To the reaction liquid, 0.5–12.0 nmol of the labeled compound and 0.0009–9.0 units of a liquid enzyme (Sigma Corporation) was added and reacted at 25° C. for a fixed period of time, followed by treatment in a boiling water bath for 3 minutes to stop the reaction. […] The reaction liquid was subjected to centrifugal separation, and the supernatant was applied over a silica gel plate along with an authentic standard (5-iodouridine: IU) and a non-labeled parent compound. It was developed with a mixture of chloroform and isopropyl alcohol (3:1), and then the autoradiogram was measured with a bioimaging analyzer (BAS-1500, Fuji Photo Film Co., Ltd.). The area of interest was set to peak components of the Rf value corresponding to the authentic standard, and the amount of the resulting metabolite was calculated from its proportion in percentage. […] FITAU and [I-125] IMBAU, a reversed phase silica gel plate was used, and after development with a mixture of methanol and water (3:7), an autoradiogram was measured with a bioimaging analyzer (BAS-1500; Fuji Photo Film Co., Ltd.) similarly to the [I-125] IUR and others.
# [4] = in vivo distribution of [I-125] ITDU in normal mice; conditions: 370 KBq into tail vein, FIG. 9
# Method: A 370 KBq of [I-125] ITDU was injected in each of 10 week old normal mice into the tail vein, and three animals were sacrificed and anatomized at appropriate intervals. Incorporation of radioactivity in each tissue sample was measured with an automatic well-type gamma counter (ARC-300, Aloka Co., Ltd.). Incorporated radioactivity in tissue was calculated as the administrated dose per gram of the tissue, and represented in percentage, as shown in FIG. 9.
# [5] = in vivo label stability, accumulation of free iodine in thyroid gland (Example 16); conditions: 370 KBq into tail vein, 10 week old normal mice, FIG. 7
# Method: To evaluate in vivo label stability of [I-125] ITDU and [I-125] ITAU, tests were conducted to study the accumulation of free iodine in the thyroid gland in normal mice. […] For a control, in vivo distribution of [I-125] IUR was also observed. […] Incorporated radioactivity in tissue was calculated as the administrated dose per gram of the tissue per unit time, and represented in percentage, as shown in FIG. 7. […] ITDU and [I-125]
# [6] = in vivo label stability, accumulation of free iodine in thyroid gland (Example 17); conditions: 185 KBq into tail vein, 10 week old normal mice (C57BL/6), longer intervals, FIG. 8
# Method: To evaluate in vivo stability of deiodination against each radioactive iodine-labeled nucleic acid derivative, tests were conducted to study accumulation of free iodine in the thyroid gland of normal mice. A 185 KBq of each labeled compound was injected in each of 10 week old normal mice (C57BL/6) into the tail vein, and three animals were sacrificed and anatomized at intervals longer than in Example 16. Incorporation of radioactivity in the thyroid gland was measured with an automatic well-type gamma counter (ARC-300, Aloka Co., Ltd.). Incorporated radioactivity in tissue (% ID) was calculated as the administrated per gram of the tissue, and represented in percentage, as shown in FIG. 8.
# [7] = system: L-M cells; experiment: incorporation of labeled compounds into L-M cells; format: cell-based; conditions: for Incorporation, L-M: 2 nmol labeled compound, one hour, L-M cells; for thymidine kinase-dependent incorporation into cells: L-M versus L-M (TK-) cells; for (L-M)/{L-M(TK-)}: ratio of incorporation, L-M to L-M (TK-), T-test
# Method: (§1) L-M and L-M (TK-) cells in the logarithmic growth phase were planted on 24-well plates, each carrying 2.0×10^5 cells, and cultured overnight. Then 2 nmol of a radioactive iodine-labeled nucleic acid derivative was added and allowed to be incorporated in the cells for one hour. The cells were washed three times with an ice-cooled phosphate buffer solution, and dissolved in 0.1N NaOH, followed by determination of degree of radioactivity incorporated in the cells using an automatic well-type gamma counter (ARC-380 or ARC-300, Aloka Co., Ltd.). Measurements were analyzed to make evaluations based on the amount of the incorporated label molecules per unit weight of cellular proteins. […] ITdU and [I-125] […] IUR as a control.
# [8] = system: L-M (TK-) cells; experiment: incorporation of labeled compounds into thymidine kinase-deficient L-M (TK-) cells; format: cell-based; conditions: 2 nmol labeled compound, one hour
# Method: as §1
# [9] = biological target: T1, E. coli-originating thymidine phospholylase; conditions: for 5-iodouridine production rate: 2 nmole labeled compound, 9 units enzyme, n = 3; for 5-iodouridine production rate / metabolic stability of glycosidic bond compared with [I-125] IUR: 25° C.; for relative activity (C—N glycosidic bond cleavage): relative to [I-125]IUR = 1.00; for metabolic stability of glycosidic bond compared with [I-125] IUR: thymidine phospholylase
# Method: To the reaction liquid, 2 nmole of the labeled compound and 9 units of a liquid enzyme (Sigma Corporation) were added and reacted at 25° C. for a fixed period of time, and the reaction was stopped by treatment in a boiling water bath for 3 minutes. The reaction liquid was subjected to centrifugal separation, and the supernatant was applied over a thin layer silica gel plate along with an authentic standard (5-iodouridine: IU) and a non-labeled parent compound. It was developed with a mixture of chloroform and isopropyl alcohol (3:1), and then autoradiography was measured with a bioimaging analyzer (BAS-1500, Fuji Photo Film Co., Ltd.). The area of interest was set to peak components of the Rf value corresponding to the authentic standard, and the amount of the resulting metabolite was calculated from its proportion in percentage.
# [10] = literature; cited from earlier work
# [11] = system: Walker tumor; experiment: scintigraphy of Walker tumor; format: in vivo; conditions: 37 MBq into tail vein, four hours after administration, Walker tumor in Wistar rats, FIG. 11
# Method: Malignant tumor, a typical proliferative disease, was observed by scintigraphy. Walker tumor cells were transplanted subcutaneously in the right inguinal region of Wistar rats. After the transplantation, 37 MBq of [I-123] ITDU was injected into the tail vein of rats that suffered a palpable tumor of about 20 mm that was suitable for scintigraphy. Each tumor-transplanted rat was anesthetized with Ravonal four hours after the administration of a drug. Then the rat was fixed in the face-up position and observed statically with gamma-camera imaging equipment (GCA-90B, Toshiba Corporation). Imaging was performed using a high-resolution medium-energy collimator to obtain images for 10 minutes with a resolution of 256×256.
# T1 sequence (P07650 whole entry): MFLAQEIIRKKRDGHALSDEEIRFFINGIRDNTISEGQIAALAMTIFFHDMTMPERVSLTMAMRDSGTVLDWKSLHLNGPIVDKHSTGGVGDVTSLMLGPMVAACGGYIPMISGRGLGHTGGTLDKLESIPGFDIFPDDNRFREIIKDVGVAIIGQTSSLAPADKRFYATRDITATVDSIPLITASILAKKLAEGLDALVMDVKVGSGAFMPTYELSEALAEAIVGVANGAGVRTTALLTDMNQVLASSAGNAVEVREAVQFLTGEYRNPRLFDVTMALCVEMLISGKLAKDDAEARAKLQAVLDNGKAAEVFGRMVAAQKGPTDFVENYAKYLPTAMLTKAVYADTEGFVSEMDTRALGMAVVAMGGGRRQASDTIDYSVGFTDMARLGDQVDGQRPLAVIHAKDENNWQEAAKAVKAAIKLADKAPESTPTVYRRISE
Compound,5-IU production rate [3] [pmol/units/0.5 h],accumulated radioactivity in the thyroid gland (in vivo label stability) [6],"Incorporation, L-M [7] [pmol/mg protein/h]",thymidine kinase-dependent incorporation into cells [7],(L-M)/{L-M(TK-)} [7],"Incorporation, L-M (TK−) [8] [pmol/mg protein/h]",relative activity (C—N glycosidic bond cleavage) [9],Relative activity (C—N glycosidic linkage cleavage) [3],stability in vivo [10],also measured
"O=c1[nH]c(=O)n([C@H]2C[C@H](O)[C@@H](CO)S2)cc1[125I] [[I-125] ITDU, [I-125]-5-iodo-4′-thio-2′-deoxyuridine]",3778.7 ± 692.0,significantly smaller than that from the control [I-125] IUR,10.90 ± 1.48,incorporated in cells in a thymidine kinase dependent way,2.77*,3.94 ± 0.63,0.03,,,"accumulation in proliferating tissues (% ID/g) [1]: accumulated in large amounts particularly in the thymus; phosphorylation activity attributed to thymidine kinase [2]: confirmed; Phosphorylated material production rate [2]: 1182.7 ± 100.1 p mole/mg protein/h; accumulated radioactivity in proliferating tissues (thymus, small intestine) versus non-proliferating tissues (brain, liver, muscle) [4]: certainly higher than that in non-proliferating tissues; accumulated radioactivity in the thyroid gland (in vivo label stability) [5]: significantly smaller than that from the control [I-125] IUR; 5-iodouridine production rate [9]: 4075.9 ± 736.4 p mole/units/30 min; metabolic stability of glycosidic bond compared with [I-125] IUR [9]: stabler than 5-iododeoxyuridine"
"O=c1[nH]c(=O)n(C2S[C@H](CO)[C@@H](O)[C@@H]2O)cc1[125I] (stereo partly drawn) [[I-125] ITAU, [I-125]-5-iodo-1-(4-thio-D-arabinofuranosyl)uracil]",514.8 ± 367.0,significantly smaller than that from the control [I-125] IUR,1.68 ± 0.28,,1.40**,1.20 ± 0.20,< 0.01,<0.01,,phosphorylation activity attributed to thymidine kinase [2]: confirmed; Phosphorylated material production rate [2]: 13.6 ± 6.6 p mole/mg protein/h; accumulated radioactivity in the thyroid gland (in vivo label stability) [5]: significantly smaller than that from the control [I-125] IUR; 5-iodouridine production rate [9]: 524.3 ± 373.8 p mole/units/30 min; metabolic stability of glycosidic bond compared with [I-125] IUR [9]: stabler than 5-iododeoxyuridine
Cc1cn([C@H]2C[C@H](F)[C@@H](CO)O2)c(=O)[nH]c1=O [3′-deoxy-3′-fluorothymidine],,,,,,,,,high stability in vivo,
"Cn1c(=O)c([125I])cn([C@@H]2O[C@H](CO)[C@@H](O)[C@@H]2Br)c1=O [[I-125] IMBAU, [I-125]-5-iodo-1-methyl-(2-deoxy-2-bromo-β-D-arabinopentofuranosyl)uracil]",0.0,significantly smaller than that from the control [I-125] IUR,,,,,,0.0,,stability under heat treatment ([3]; boiling water bath for 3 minutes used to stop the reaction): unstable under heat treatment; metabolic stability of glycosidic bond compared with [I-125] IUR [3]: still stabler than [I-125] IUR
"O=c1[nH]c(=O)n([C@@H]2S[C@H](CO)[C@@H](O)[C@@H]2F)cc1[125I] [[I-125] FITAU, [I-125]-5-iodo-1-(2-deoxy-2-fluoro-4-thio-β-D-arabinopentofuranosyl)uracil]",0.5 ± 0.1,significantly smaller than that from the control [I-125] IUR,0.34 ± 0.05,incorporated in cells in a thymidine kinase dependent way,1.62***,0.21 ± 0.05,,<0.00001,,metabolic stability of glycosidic bond compared with [I-125] IUR [3]: still stabler than [I-125] IUR
O=c1[nH]c(=O)n([C@H]2C[C@H](O)[C@@H](CO)O2)cc1I [5-iodo-deoxyuridine],,,,,,,,,decomposed rapidly in vivo,
"O=c1[nH]c(=O)n([C@H]2C[C@H](O)[C@@H](CO)S2)cc1[123I] [[I-123] ITDU, [I-123]-5-iodo-4′-thio-2′-deoxyuridine]",,,,,,,,,,scintigraphic imaging of transplanted tumor [11]: clear imaging of transplanted tumors
O=c1[nH]c(=O)n([C@@H]2O[C@H](CO)[C@@H](O)[C@@H]2F)cc1I [2′-fluoro-5-iodoarabinouridine],,,,,,,,,high stability in vivo,
"O=c1[nH]c(=O)n([C@H]2C[C@H](O)[C@@H](CO)O2)cc1I [[I-125] IUR, 5-iododeoxyuridine, reference compound]",,,77.80 ± 7.45,incorporated in cells in a thymidine kinase dependent way,2.79*,27.86 ± 2.94,1.00,1.00,,accumulation in proliferating tissues (% ID/g) [1]: accumulated in large amounts particularly in the thymus

# — patent US7118731B2, “Drugs for the diagnosis of tissue reproductive activity or the treatment of proliferative diseases” (priority 2002, dated 2006)
